Source: patent publication US10336711B2, “Prolyl hydroxylase inhibitors” (GlaxoSmithKline, LLC, priority 2006, dated 2019)

Tested on: Hep3B cells
Assay: Epo protein produced by Hep3B cell line using ELISA method
Type: cell-based
Conditions: Homo sapiens, 48 Hours incubation, 100 micromolar the maximum concentration tested
Method: Measure Epo Protein Produced by Hep3B Cell Line Using ELISA Method.
Hep3B cells obtained from the American Type Culture Collection (ATCC) are seeded at 2×10^4 cells/well in Dulbecco's Modified Eagle Medium (DMEM)+10% FBS in 96-well plates. Cells are incubated at 37deg C./5% CO2/90% humidity (standard cell culture incubation conditions). After overnight adherence, medium is removed and replaced with DMEM without serum containing test compound or DMSO negative control. Following 48 Hours incubation, cell culture medium is collected and assayed by ELISA to quantitate Epo protein.

SMILES | EC50 [µM]
O=C(O)CNC(=O)c1c(O)n(-c2ccccn2)c(=O)n(Cc2ccccc2)c1=O [Example 8, N-{[6-Hydroxy-2,4-dioxo-3-(phenylmethyl)-1-(2-pyridinyl)-1,2,3,4-tetrahydro-5-pyrimidinyl]carbonyl}glycine] | > 100
O=C(O)CNC(=O)c1c(O)n(-c2ccccc2[N+](=O)[O-])c(=O)n(Cc2ccccc2)c1=O [Example 9, N-{[6-Hydroxy-1-(2-nitrophenyl)-2,4-dioxo-3-(phenylmethyl)-1,2,3,4-tetrahydro-5-pyrimidinyl]carbonyl}glycine] | > 100
CC(C)(C)c1ccc(Cn2c(=O)c(C(=O)NCC(=O)O)c(O)n(-c3ccccc3-c3ccccc3)c2=O)cc1 [Example 31, N-[(1-(2-Biphenylyl)-3-{[4-(1,1-dimethylethyl)phenyl]methyl}-6-hydroxy-2,4-dioxo-1,2,3,4-tetrahydro-5-pyrimidinyl)carbonyl]glycine] | > 100
O=C(O)CNC(=O)c1c(O)n(C2CCCCC2)c(=O)n(CCCN2CCOCC2)c1=O [Example 35, N-({1-Cyclohexyl-6-hydroxy-3-[3-(4-morpholinyl)propyl]-2,4-dioxo-1,2,3,4-tetrahydro-5-pyrimidinyl}carbonyl)glycine] | > 100
CC1(C)CCC(C)(C)c2cc(Cn3c(=O)c(C(=O)NCC(=O)O)c(O)n(C4CCCCC4)c3=O)ccc21 [Example 39, N-({1-Cyclohexyl-6-hydroxy-2,4-dioxo-3-[(5,5,8,8-tetramethyl-5,6,7,8-tetrahydro-2-naphthalenyl)methyl]-1,2,3,4-tetrahydro-5-pyrimidinyl}carbonyl)glycine] | > 100
O=C(O)CNC(=O)c1c(O)n(-c2cccc3ccccc23)c(=O)n(C2CCCCC2)c1=O [Example 88, N-{[3-Cyclohexyl-6-hydroxy-1-(1-naphthalenyl)-2,4-dioxo-1,2,3,4-tetrahydro-5-pyrimidinyl]carbonyl}glycine] | > 100
CCOC(=O)CNC(=S)c1c(O)n(C2CCCCC2)c(=O)n(C2CCCCC2)c1=O [Example 91, Ethyl N-[(1,3-dicyclohexyl-6-hydroxy-2,4-dioxo-1,2,3,4-tetrahydro-5-pyrimidinyl)carbonothioyl]glycinate] | > 100
O=C(O)CCCCCn1c(O)c(C(=O)NCC(=O)O)c(=O)n(C2CCCCC2)c1=O [Example 93, 6-[5-{[(Carboxymethyl)amino]carbonyl}-3-cyclohexyl-6-hydroxy-2,4-dioxo-3,4-dihydro-1(2 H)-pyrimidinyl]hexanoic acid] | > 100
O=C(O)CCCCCn1c(O)c(C(=S)NCC(=O)O)c(=O)n(C2CCCCC2)c1=O [Example 94, 6-[5-{[(Carboxymethyl)amino]carbonothioyl}-3-cyclohexyl-6-hydroxy-2,4-dioxo-3,4-dihydro-1(2 H)-pyrimidinyl]hexanoic acid] | > 100
